The values below come from US9539301B2, “Melanotropin ligands for skin care” (THE ARIZONA BOARD OF REGENTS ON BEHALF OF THE UNIVERSITY OF …, priority 2011, dated 2017).

Square brackets hold non-standard residues; d marks the D form. Peptide text beside a SMILES is read from it. * marks the point of attachment. d2Nal = N[C@H](Cc1ccc2ccccc2c1)C(=O)O; Butanoyl(4-Ph) = O=C(CCCc1ccccc1)*; Butanoyl(4-ethynyl) = C#CCCCC(=O)*; Nle = CCCC[C@H](N)C(=O)O

The target in this assay is MC1R (Homo sapiens, UniProt Q01726). As to the kind of experiment: Europium time-resolved fluorescence competitive binding assay (Eu-NDP-α-MSH) on HCT116/hMC1R cells. Details: host or cells: HCT116. Conditions: for 1R/4R selectivity (values determined): ratio of MC4R Ki to MC1R Ki. As to the method:
HCT116 cells overexpressing hMC1R and HEK293 cells overexpressing hMC4R[23] or hMC5R were used in all studies. […] Cells were maintained under standard conditions (37° C. and 5% CO2) and were grown in Dulbecco's modified Eagle medium (DMEM) supplemented with 10% FBS and 5% penicillin/streptomycin. For HCT116/hMC1R cells, geneticin (G418S, 0.4 mg/mL) was added to the media to ensure proper selection.
Competitive binding assays were performed using HCT116/hMC1R cells and HEK293/hMC4R or hMC5R as previously described, with slight modifications. […] Poly-D-Lysine Coated Plates contain a PDL polymer coating that creates a uniform positive charge at the surface of the plastic, thereby facilitating cell attachment, growth and differentiation. […] Both labeled and non-labeled ligands were diluted in binding media (DMEM, 1 mM 1,10-phenanthroline, 200 mg/L bacitracin, 0.5 mg/L leupeptin, 0.3% BSA). In the case of the triblock polymer micelle solutions, micelles were allowed to equilibrate in solution for a period of 30 min prior to cell addition. Cells were incubated with labeled and non-labeled ligands for 1 hour at 37° C. Following incubation, cells were washed three times with wash buffer (50 mM Tris-HCl, 0.2% BSA, 30 mM NaCl) and 50 µL of enhancement solution (PerkinElmer) was added to each well. Cells were incubated for an additional 30 min at 37° C. prior to reading. […] Competition curves were analyzed with GraphPad Prism software using the sigmoidal dose-response (variable slope) classical equation for nonlinear regression analysis.
Competitive binding assays were also performed using 4-targeted triblock polymers, triblock polymer micelles, as well as untargeted micelles as a control (FIG. 4A-C).
Europium binding assays were conducted as previously published.^33, 40
Time-resolved lanthanide fluorescence competitive binding assays^33, 40 were performed in an effort to optimize ligand loading for maximal avidity. In these assays, increasing concentrations of micelles were measured for their ability to competitively displace Eu-labeled NDP-α-MSH 2. The remaining Eu was then measured using time resolved fluorescence (TRF, see Methods).

Chain of MC1R (Q01726 whole entry): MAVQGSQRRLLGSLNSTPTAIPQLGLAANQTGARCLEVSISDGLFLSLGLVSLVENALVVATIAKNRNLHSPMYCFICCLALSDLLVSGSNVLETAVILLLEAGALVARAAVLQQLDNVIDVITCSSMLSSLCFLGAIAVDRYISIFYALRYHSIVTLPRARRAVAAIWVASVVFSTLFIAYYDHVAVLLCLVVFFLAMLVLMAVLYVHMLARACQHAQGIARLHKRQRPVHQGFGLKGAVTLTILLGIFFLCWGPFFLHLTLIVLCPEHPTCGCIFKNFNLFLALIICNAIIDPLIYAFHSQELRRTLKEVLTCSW

What is called Ki is the dissociation constant of the complex between target and ligand, obtained from inhibition or displacement. `CC(=O)N[C@@H](CCc1ccccc1)C(=O)N[C@@H](Cc1cnc[nH]1)C(=O)N[C@H](Cc1ccccc1)C(=O)N[C@@H](CCCN=C(N)N)C(=O)N[C@@H](Cc1c[nH]c2ccccc12)C(N)=O` [Compound 2, Ac-Homophenylalanine-His-DPhe-Arg-Trp-NH2]: the Ki (HCT116/hMC1R cells, competition with Eu-NDP-α-MSH, read-out: Ki MC1R (values determined)) came out at 1.77 nM.
On to `C#CCCCC(=O)NCCCC[C@H](NC(=O)CNC(=O)[C@H](Cc1c[nH]c2ccccc12)NC(=O)[C@H](CCCNC(=N)N)NC(=O)[C@@H](Cc1ccccc1)NC(=O)[C@H](Cc1c[nH]cn1)NC(=O)CCCc1ccccc1)C(N)=O` [Compound 4, 4-phenylbutyry1-His-DPhe-Arg-Trp-Gly-Lys(hex-5-ynoyl)-NH2] ({Butanoyl(4-Ph)}-H[dF]RWGK(Butanoyl(4-ethynyl))-NH2), for which the “1R/4R selectivity (values determined)” value is recorded as 1000. Further, the “1R/5R selectivity (values determined)” value (ratio of MC5R Ki to MC1R Ki) amounted to 200.
Turning to `C#CCCCC(=O)NCCCC[C@H](N)C(=O)N[C@@H](Cc1ccc(O)cc1)C(=O)N[C@H](C(=O)N[C@@H](CCCC)C(=O)NCC(=O)N[C@@H](Cc1c[nH]cn1)C(=O)N[C@H](Cc1ccc2ccccc2c1)C(=O)N[C@@H](CCCNC(=N)N)C(=O)N[C@H](Cc1ccccc1)C(=O)N[C@@H](CC(=O)O)C(=O)N[C@@H](CCCNC(=N)N)C(=O)N[C@@H](Cc1ccccc1)C(=O)NCC(N)=O)C(C)C` [Compound 8, H-Lys(hex-5-ynoyl)Tyr-Val-Nle-Gly-His-DNal(2′)-Arg-DPhe-Asp-Arg-Phe-Gly-NH2] (H-K(Butanoyl(4-ethynyl))YV[Nle]GH[d2Nal]R[dF]DRFG-NH2), the “1R/4R selectivity (values determined)” value is 1.05.
